What was measured:
[1] = Half-life of Compound 128 in vivo
Method: In myeloproliferative disorders, the de novo resynthesis rate of BTK following covalent inhibition by Compound 128 is greater than the de novo BTK resynthesis rate in B-cell malignancies. […] The short half-life of Compound 128 (1 to 2 hours in vivo), coupled with the faster BTK turnover in myelofibrosis in particular, and myeloproliferative disorders in general, requires higher BID dosing. Thus, a 300 mg BID dose in subjects with myelofibrosis should ensure maximal BTK occupancy at trough levels of this drug.

BTK = target: T1, BTK (Homo sapiens, UniProt Q06187); test: BTK resynthesis rate in cells after saturating exposure to and washout of Compound 128 (free BTK by ELISA); type: cell-based
T1 construct: endogenous in cells; host or cells: RAMOS B cells, HEL-92, MV-411, MOLM-13, THP-1, UKE-1, primary myeloid cells/monocytes from a healthy donor, primary cells from AML patients
T1 sequence (Q06187 whole entry): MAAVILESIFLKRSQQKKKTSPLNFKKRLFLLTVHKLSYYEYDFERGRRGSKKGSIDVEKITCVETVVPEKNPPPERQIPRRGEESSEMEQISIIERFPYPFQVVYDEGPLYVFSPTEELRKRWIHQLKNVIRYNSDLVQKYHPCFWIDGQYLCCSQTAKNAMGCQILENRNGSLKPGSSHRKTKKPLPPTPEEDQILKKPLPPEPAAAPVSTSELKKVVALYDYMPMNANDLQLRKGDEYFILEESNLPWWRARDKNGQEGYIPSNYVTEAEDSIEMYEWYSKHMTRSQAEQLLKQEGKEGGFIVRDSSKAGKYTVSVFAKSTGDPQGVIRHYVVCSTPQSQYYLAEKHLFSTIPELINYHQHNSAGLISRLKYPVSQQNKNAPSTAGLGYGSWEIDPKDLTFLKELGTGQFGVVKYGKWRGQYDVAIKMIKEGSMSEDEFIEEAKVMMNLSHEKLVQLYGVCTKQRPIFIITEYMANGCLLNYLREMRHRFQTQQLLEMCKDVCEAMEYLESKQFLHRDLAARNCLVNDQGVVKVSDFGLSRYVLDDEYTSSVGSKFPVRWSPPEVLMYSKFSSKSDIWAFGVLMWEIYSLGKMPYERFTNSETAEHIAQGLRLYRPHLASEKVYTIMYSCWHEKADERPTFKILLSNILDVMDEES
Method: Various cell types and tissues show different rates of BTK synthesis (see FIG. 1). Cells were cultured with a saturating concentration of Compound 128 to occupy all BTK protein (0% free BTK). This was followed by a washout of Compound 128 and culturing for up to 48 hours with no BTK inhibitor to allow the cells to synthesize new BTK protein. The rate of BTK protein synthesis was determined by measuring the free BTK by ELISA at different time points. RAMOS B cells resynthesized BTK at a rate of only 26% per day, while Hel-92 and MV-411 cells resynthesized BTK at a rate of over 100% per day. […] The rate of BTK resynthesis in naïve AML patients was roughly 30% per day, with low inter-patient variability.
BTK resynthesis in each cell type was measured as described in Example 1. The left graph (see FIG. 2) depicts the BTK resynthesis rate in monocytes from a normal individual following a two hour exposure to Compound 128. The BTK resynthesis rate was determined to be 61% per day in normal monocytes. The right graph (see FIG. 2) depicts the BTK resynthesis rate in the presence of BTK inhibitor Compound 128 in two different cell lines.
BTK resynthesis was measured in additional AML and MF cell types as described in Example 1 following a one hour exposure to Compound 128 (see FIG. 3). MOLM-13 cells resynthesized BTK at a rate of only 21% per day, while THP-1 cells resynthesized BTK at a rate of 84% per day and UKE-1 cells resynthesized BTK at a rate of over 100% per day.

half-life [1]: 1 to 2 h
initial BTK resynthesis rate (BTK; HEL-92 (myelofibrosis) cells): 43 % per day
BTK resynthesis rate after repeated exposure (BTK; HEL-92 (myelofibrosis) cells, repeated exposure): 28 % per day
change of BTK resynthesis rate after treatment (BTK; Hel-92 cells, after 4 days of treatment): decreased BTK resynthesis rate
BTK resynthesis rate (BTK; Hel-92 cells, saturating concentration, washout, culture up to 48 hours): over 100 % per day
BTK resynthesis rate (BTK; MOLM-13 cells, one hour exposure): 21 % per day
BTK resynthesis rate after continued exposure (BTK; MV-411 cells (AML), continued exposure for seven days): 44 % per day
initial BTK resynthesis rate (BTK; MV-411 cells (AML)): 83 % per day
change of BTK resynthesis rate after treatment (BTK; MV-411 cells, after 7 days of treatment): decreased BTK resynthesis rate
BTK resynthesis rate (BTK; MV-411 cells, saturating concentration, washout, culture up to 48 hours): over 100 % per day
BTK resynthesis rate (BTK; RAMOS B cells, saturating concentration, washout, culture up to 48 hours): 26 % per day
BTK resynthesis rate (BTK; THP-1 cells, one hour exposure): 84 % per day
BTK resynthesis rate (BTK; UKE-1 cells, one hour exposure): over 100 % per day
BTK resynthesis rate (BTK; culture of primary myeloid cells from a healthy donor): 67 % per day
BTK resynthesis rate (BTK; cultures of primary cells from patients with relapsed AML): 57 % per day
de novo BTK resynthesis rate, HEL-92 cells compared to Ramos B-lymphoblastoid cell line (BTK; following covalent inhibition by Compound 128): four-fold higher
BTK resynthesis rate (BTK; monocytes from a normal individual, two hour exposure): 61 % per day
BTK resynthesis rate (BTK; naïve AML patients): roughly 30 % per day
Compound: C=CC(=O)N1CCC(F)(CNc2ncnc(N)c2-c2ccc(Oc3ccccc3)cc2)CC1 [Compound 128, 1-(4-(((6-amino-5-(4-phenoxyphenyl)pyrimidin-4-yl)amino)methyl)-4-fluoropiperidin-1-yl)prop-2-en-1-one]
